In patent US10259815B2, “Gabaergic ligands and their uses” (UWM Research Foundation, Inc., priority 2015, dated 2019):
Several values for one entry are separate records, joined by “and”; a condition that tells them apart may be missing. Equal values may be shown once.

Columns and labels:
Rats = assay: Horizontal wire test; format: in vivo; details: three-assay comparison
Procedure: Horizontal wire test. Rats (n=10) were lifted by the tail and allowed to grasp a horizontally strung wire with their forepaws and released. The inability to complete this task (within 3 seconds) was recorded 20 minutes after each injection of drug.
Drugs. The following drugs were used: HZ166, KRM-II-18B, and KRM-II-81, and were dissolved in a mixture containing 20% Dimethyl sulfoxide (DMSO), 10% Emulphor-620 (Rhodia Inc.), and 70% of 0.9% saline. Flumazenil (purchased from Cayman Chemical Company, MI) was dissolved in a mixture containing 10% ethanol, 40% propylene glycol, and 50% sterile water. Midazolam (Akorn, Inc.) was dissolved in 0.9% saline. Doses were expressed as the weight of the drug in milligrams per kilogram of body weight and drugs were administered intraperitoneally.

[1] = Liver microsomal stability, dog; format: in vitro ADME; details: for Dog Liver microsome stability (reported in % remaining): 37° C., 4 μM compound, 30 minutes
Procedure: (§1) In vitro metabolism studies were done in mouse, rat, human, and dogs cells (TABLE 2).
(§2) In vitro liver microsomal studies were completed to measure the stability of the compounds against degradation in various species' liver microsomes.
(§3) Compound was incubated in hepatic microsomes over a 30-minute incubation period at 37° C. Incubations both with and without NADPH (2 mM) were performed in a 96-well plate format. The reaction was initiated with the addition of substrate and was terminated by protein precipitation. All incubations were performed using a final substrate concentration of 4 μM in 50 mM sodium phosphate buffer, pH 7.4. The final organic solvent content was 0.5% acetonitrile and 0.02% DMSO. The amount of enzyme present was fixed at 1.11 mg/mL protein irrespective of the species of microsomes used. Samples were analyzed by LC/MS-MS to determine the percent loss in the NAPDH incubations relative to the NADPH free incubations.

[2] = molecular target: T1, α3, β3, γ2 GABA A receptor (Homo sapiens, UniProt P18507+P34903); assay: FLIPR functional assay, α3 GABAA receptor subtype in HEK-293 cells; format: cell-based; details: α3 Binding EC50, FLIPR membrane potential, potentiation of GABA EC20
T1 construct: host or cells: HEK-293, stably transfected
Source text: The FLIPR functional assay is used to determine the EC50 at the α1 and α3 GABAA receptor subtypes. A high EC50 for the α1 subtype would indicate a low chance of adverse effects, including sedation, ataxia, and muscle relaxation. A low α3 EC50 would indicate potential effectiveness as an anxiolytic, antihyperalgesic, and likely an anticonvulsant. See, for example, Liu et al. (Assay. Drug. Dev. Technol. 2008, 6, 781-6) and Joesch et al. (J. Biomol. Screen. 2008, 13, 218-28).
Compounds tested were synthesized internally and solubilized in DMSO at a 10 mM concentration. GABA was purchase from Sigma (#A2129) and prepared at 100 mM in water.
HEK-293 cells were stably transfected with the α1, β3, γ2 GABA A receptor subunits (GenBank accession numbers NM_000806.3, NM_000814.5, and NM_198904.1, respectively) or α3, β3, γ2 (NM_000808 for α3) where obtained from ChanTest Co. (Catalog # CT6216 and CT6218, respectively).
Cells were cultivated in Dulbeco's Modified Eagle's Medium (DMEM, Sigma D5796) supplemented with 10% Fetal Bovine Serum (FBS, Gibco 16000), 0.5 mg/mL Geneticin (Gibco), 0.04 mg/mL Hygromycin B (Gibco), 0.1 mg/mL Zeocin (Gibco) and 20 mM HEPES (Sigma). Cells were grown at 37° C. in a humidified atmosphere of 5% CO2. In the experiments described here frozen cells were used. For this purpose, cells were gown and maintained under confluency during 2-3 weeks and then frozen down at different cell densities using Recovery™ Cell Culture Freezing Medium (Gibco).
18 hours prior to the experiment, cells were quickly thawed at 37° C. and seeded on Poly-D-Lys 384 plates (Corning 356663) at a density of 25,000 cells/well and in 25 μL of complete cell medium as described above.
Membrane potential changes induced by the flux of ions through the receptor were measured as relative fluorescence units (RFU) using the Fluorometric Imaging Plate Reader (FLIPR Tetra®, Molecular Devices) and the FLIPR Membrane Potential Blue Assay kit (Molecular Devices). Prior to the addition of the compounds the medium was removed and cells were loaded with 20 μL of dye prepared in assay buffer composed of Hank's Balanced Salt Solution (HBSS with Ca^+2 and Mg^+2; Gibco 14025) with 20 mM Hepes. After 1 hour of incubation at room temperature (RT), the plate was placed into the FLIPR instrument and experiments were run adding first 10 μL from the 1st addition plate (compound plate) and after a 3 minutes incubation adding 20 μL of the 2nd addition or agonist plate. The response to this last GABA addition was monitored for another 3 minutes. […]
Data Analysis. The difference between the maximum and the minimum (Max-Min) fluorescence reached during the first addition or read interval and the second read interval were used for data analysis (agonist and potentiation, respectively). […]

[3] = Liver microsomal stability, rat; format: in vitro ADME; details: for Rat Liver microsome stability (reported in % remaining): 37° C., 4 μM compound, 30 minutes
Procedure: as §1, §2, §3

[4] = Liver microsomal stability, human; format: in vitro ADME; details: for Human Liver microsome stability (reported in % remaining): 37° C., 4 μM compound, 30 minutes
Procedure: as §1, §2, §3

T1 sequence (P34903 29-492): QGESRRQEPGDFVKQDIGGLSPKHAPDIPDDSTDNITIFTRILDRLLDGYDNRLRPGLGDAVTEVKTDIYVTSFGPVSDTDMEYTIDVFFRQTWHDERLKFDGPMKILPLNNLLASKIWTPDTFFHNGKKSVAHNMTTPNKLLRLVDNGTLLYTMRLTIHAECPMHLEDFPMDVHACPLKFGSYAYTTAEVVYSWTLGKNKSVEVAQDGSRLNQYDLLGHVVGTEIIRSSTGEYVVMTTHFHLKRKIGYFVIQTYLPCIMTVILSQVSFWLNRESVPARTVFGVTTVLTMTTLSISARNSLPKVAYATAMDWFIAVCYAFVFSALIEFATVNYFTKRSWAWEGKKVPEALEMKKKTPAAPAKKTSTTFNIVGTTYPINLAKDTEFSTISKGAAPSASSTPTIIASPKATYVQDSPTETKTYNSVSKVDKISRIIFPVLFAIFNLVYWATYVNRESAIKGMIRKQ
T1 sequence (P28472 26-473 partner): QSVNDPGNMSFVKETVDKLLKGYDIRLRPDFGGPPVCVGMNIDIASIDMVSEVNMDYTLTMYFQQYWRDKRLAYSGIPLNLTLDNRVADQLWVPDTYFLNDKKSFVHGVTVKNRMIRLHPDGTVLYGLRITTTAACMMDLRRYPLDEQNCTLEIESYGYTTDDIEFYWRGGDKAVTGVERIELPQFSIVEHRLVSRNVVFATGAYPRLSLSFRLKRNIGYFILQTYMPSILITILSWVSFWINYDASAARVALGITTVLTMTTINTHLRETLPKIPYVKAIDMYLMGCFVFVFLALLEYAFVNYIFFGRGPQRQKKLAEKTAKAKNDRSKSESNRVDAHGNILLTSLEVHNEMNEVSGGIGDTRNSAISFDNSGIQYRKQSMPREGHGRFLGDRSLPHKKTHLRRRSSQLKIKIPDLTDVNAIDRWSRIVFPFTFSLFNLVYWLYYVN
T1 sequence (P18507 40-475): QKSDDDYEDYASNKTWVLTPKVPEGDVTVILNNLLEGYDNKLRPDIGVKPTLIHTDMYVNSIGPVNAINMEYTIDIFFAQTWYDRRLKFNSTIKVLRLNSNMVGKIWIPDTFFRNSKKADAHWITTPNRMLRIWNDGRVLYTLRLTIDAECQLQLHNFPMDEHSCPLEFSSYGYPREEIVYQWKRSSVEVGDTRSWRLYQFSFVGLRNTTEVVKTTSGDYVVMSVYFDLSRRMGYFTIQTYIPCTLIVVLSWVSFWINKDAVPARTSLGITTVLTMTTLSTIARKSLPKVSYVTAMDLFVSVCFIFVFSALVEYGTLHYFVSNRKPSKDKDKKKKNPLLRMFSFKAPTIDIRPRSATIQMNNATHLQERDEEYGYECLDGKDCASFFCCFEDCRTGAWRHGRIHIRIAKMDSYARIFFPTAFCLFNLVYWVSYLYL

SMILES | muscle-relaxant activity, doses relative to antihyperalgesic doses (Rats) | Dog Liver microsome stability (reported in % remaining) [1] [% remaining] | EC50 [2] | Rat Liver microsome stability (reported in % remaining) [3] [% remaining] | Human Liver microsome stability (reported in % remaining) [4] [% remaining] | Dog % Metabolized ([1]; in vitro metabolism, dog) [%] | Rat % Metabolized ([3]; in vitro metabolism, rat) [%] | Human % Metabolized ([4]; in vitro metabolism, human) [%]
C#Cc1ccc2c(c1)C(c1ccccc1F)=NCc1c(-c3cnco3)ncn1-2 [KRM-II-18B, 5-(8-Ethynyl-6-(2-fluorophenyl)-4H-benzo[f]imidazo[1,5-a][1,4]diazepin-3-yl)oxazole] | much larger doses | 87 | 11.2 nM | 68 | 78 | – | – | –
C#Cc1ccc2c(c1)C(c1ccccn1)=NCc1c(-c3cnco3)ncn1-2 [KRM-II-81, 5-(8-Ethynyl-6-(pyridin-2-yl)-4H-benzo[f]imidazo[1,5-a][1,4]diazepin-3-yl)oxazole] | much larger doses | 94 | 970 nM and 937 nM | 90 | 91 | 5.9 | 9.6 | 8.6
